# Test results published in patent US20040072862A1, “Compositions for treating ischemia-related neuronal damage” (priority 1999, published 2004).
# How the values were obtained:
# [1] = tested on: Oxygen/Glucose Deprived RGCs; assay: Protection of oxygen/glucose deprived (OGD) retinal ganglion cells, EC50; assay type: cell-based, Sprague-Dawley rat; conditions: Rattus norvegicus; compound added from 30 min prior to OGD, during OGD, and 24 and 48 h after OGD
# Method: (§1) Untreated OGD cells were also included as controls.
# (§2) The tissue was then disrupted sequentially with a 1 ml pipette, in a solution containing ovomucoid (Boehringer-Mannheim), DNase (Sigma), and bovine serum albumin (BSA; Sigma) to yield a single cell suspension. The cells were then washed in a suspension of ovomucoid/BSA.
# [2] = tested on: OGD cells (retinal ganglion cells); assay: Increase in survival of OGD cells, dose-dependent data; assay type: cell-based, Sprague-Dawley rat
# Method: as §1, §2
smiles,measurement,setting,value
"Oc1cccc2nc(Cc3nc4ccccc4[nH]3)[nH]c12 [SNX-926, 2-(benzimidazol-2-ylmethyl)benzimidazol-7-ol]",EC50,[1],40 nM
same,activation at 0.001 µM,"[2]; Rattus norvegicus, 0.001 μM, read-out: Percent Increase in Survival over OGD Control Cells",< 50%
same,activation at 0.01 µM,"[2]; Rattus norvegicus, 0.01 μM, read-out: Percent Increase in Survival over OGD Control Cells",50 to 100%
same,activation at 0.1 µM,"[2]; Rattus norvegicus, 0.1 μM, read-out: Percent Increase in Survival over OGD Control Cells",> 100%
same,activation at 1 µM,"[2]; Rattus norvegicus, 1 μM, read-out: Percent Increase in Survival over OGD Control Cells",> 100%
same,activation at 10 µM,"[2]; Rattus norvegicus, 10 μM, read-out: Percent Increase in Survival over OGD Control Cells",50 to 100%
same,TI (therapeutic index),"[2]; rat, retinal ganglion cells",> 250
